Laboratory results published in paper PMC6522524 (Nature Communications, 2019).
Where “and” joins values, the source holds several entries; their conditions need not be identical. Equal values may be shown once. Read-outs that look alike come from different tables or passages of the source.

Columns and labels:
[1] = tested on: HBsAg in HepG2.2.15 cells; experiment: Secreted HBsAg ELISA, HepG2.2.15 cells; format: cell-based, Hepatitis B virus; conditions: 6 days
Method: (§1) Secreted HBsAg (f, i respectively) was quantified by ELISA.
(§2) An HBsAg ELISA kit (KA0286, Abnova) was used to quantify HBsAg protein. Briefly, culture media were incubated in individual wells of the capture plates for 2 h. After washing, horseradish peroxidase-labeled rabbit anti-HBV surface antibody was added, followed by incubation for an additional 2 h. The substrate solution was added for 15–60 min and absorbance at 450 nm was measured.

[2] = tested on: HBV pgRNA/precore RNA in HepG2.2.15 cells; format: cell-based, Hepatitis B virus
Method: Fig. 1 Effect of FDA-approved compounds on HBV replication. a Schematic depiction of the primary screening analysis. HepG2.2.15 cells, which were stably transfected with HBV replicons, were treated with 978 FDA-approved drugs (1 μM) for 3 days. Entecavir (ETV) (1 μM) served as positive control. […] Quantitative RT-PCR was performed after 6 days of incubation. d Effect of the 19 candidates on intracellular HBV capsid assembly. Huh-7 cells were transfected with pCDNA3-Core and exposed after 12 h to the 19 candidates (1 μM) for 36 h. The cells were lysed and assembled HBV core particles were isolated by sucrose step gradient ultracentrifugation, resolved on 1% agarose gels, and subjected to immunoblot analysis with anti-HBV core antibody.
(§3) Quantitative RT-PCR with primers that detect three HBV regions (R1, R2, and R3, Supplementary Table 1) was used to measure HBV transcription. This RT-PCR detects pgRNA and precore RNA (3.5 kB), two HBV surface-encoding RNAs (2.5 kB and 2.1 kB), and HBx-encoding RNA (0.7 kB)[55]. PCR conditions were 95 °C for 10 min initially, then 50 cycles of 95 °C for 30 s, 60 °C for 60 s and 72 °C for 30 s, and finally 1 cycle of 95 °C for 60 s, 55 °C for 30 s and 95 °C for 30 s.
(§4) a Schematic depiction of the R1, R2, and R3 regions of the HBV genome that were targeted by
(§5) quantitative RT-PCR to quantitate the transcription of pgRNA, two HBV surface RNAs, and HBx RNA.
(§6) pGL3/HBV pgRNA promoter or pGL3/HBV sRNA promoter. The data shown in (b – d) represent two

[3] = tested on: HBV (ayw subtype, genotype D) replicon in HepG2.2.15 cells; experiment: microbe, parasite or virus in culture; format: cell-based, Hepatitis B virus; conditions: for activity at 10 µM: Hepatitis B virus, HepG2.2.15, 144 h, 6 days
[4] = tested on: HBsAg in HepG2 cells transfected with pHBV1.2×; experiment: Secreted HBsAg ELISA, HepG2 cells transfected with pHBV1.2×; format: cell-based, Hepatitis B virus; conditions: 10 μM, 6 days
Method: as §1, §2

[5] = tested on: HBV transcripts in HepG2 cells transfected with pHBV1.2×; experiment: HBV transcription in HepG2 cells transfected with pHBV1.2×, quantitative RT-PCR; format: cell-based, Hepatitis B virus; conditions: Suppl. fig. 12c, ETV, Control = 1
Method: as §3, with “s. […]” for “s.”
a Schematic depiction of the R1, R2, and R3 regions of the HBV genome that were targeted by quantitative RT-PCR to quantitate the transcription of pgRNA, two HBV surface RNAs, and HBx RNA. […]
c Region 3 transcription in ciclopirox-treated (b) HepG2.2.15 cells and (c) HepG2 cells transfected with the pHBV1.2× plasmid. d The promoter analysis of ciclopirox-treated HepG2 cells transfected with pGL3/HBV pgRNA promoter or pGL3/HBV sRNA promoter. The data shown in (b – d) represent two

in vitro [6] = conditions: human, Cell viability(%), HBV 1.2x adr, 10 μM, 6 days
in vitro [7] = conditions: human, Cell viability(%), HepG2.2.15, 10 μM, 6 days
[8] = tested on: HepG2 cells transfected with pHBV1.2×; conditions: HBV 1.2x adr, 10 μM, 6 days, Sample1-3
[9] = tested on: HBV pgRNA promoter, HBV sRNA promoter; experiment: Promoter analysis in HepG2 cells transfected with pGL3/HBV pgRNA promoter or pGL3/HBV sRNA promoter; format: cell-based, Hepatitis B virus; conditions: ETV
Description: as §4, §5, §6

[10] = tested on: HBV (pHBV1.2× adr) in transfected HepG2 cells; experiment: microbe, parasite or virus in culture; format: cell-based, Hepatitis B virus; conditions: 10 μM, 6 days
[11] = tested on: HBV (pHBV1.2× adr) in transfected HepG2 cells; experiment: microbe, parasite or virus in culture; format: cell-based, Hepatitis B virus; conditions: 10 μM, 6 days; remark: listed apart in the source

## C=C1[C@H](CO)[C@@H](O)C[C@@H]1n1cnc2c(=O)[nH]c(N)nc21 [ETV, entecavir]
[1]; HepG2.2.15 (figure 4f), 10 μM
  Relative secreted HBsAg (Folds), AVERAGE: 0.9837 Folds
[1]; HepG2.2.15, 10 μM, Sample1-2
  Relative secreted HBsAg (Folds), individual samples: 0.9818 Folds and 0.9857 Folds
[2]; Fig. 1c, 6 days
  Relative HBV pgRNA/precore RNA level (Folds), AVERAGE: 0.9573 Folds
[2]; Suppl. fig. 12b, R1, single samples, ETV, Control = 1
  Relative HBV transcript R1, Sample1-3: 0.9164 and 1.011 and 1.015
[2]; Suppl. fig. 12b, R2, ETV, Control = 1
  Relative HBV transcript R2, AVERAGE: 1.028
[2]; Suppl. fig. 12b, R3, ETV, Control = 1
  Relative HBV transcript R3, AVERAGE: 0.9829
[2]; Suppl. fig. 12b, R3, single samples, ETV, Control = 1
  Relative HBV transcript R3, Sample1-3: 0.9794 and 0.8641 and 0.8947
[3]; 1 μM, 3 days' incubation
  HBV DNA particle secretion was reduced by: 42.1 ± 14.1%
[3]; HepG2.2.15 (figure 4d), 10 μM, read-out: Relative secreted HBV DNA level (Folds), AVERAGE
  activity at 10 µM: 1.36%
[3]; HepG2.2.15, 10 μM, read-out: Relative secreted HBV DNA level (Folds), individual samples
  activity at 10 µM: 1.96%
[4]; HBV 1.2x adr (figure 4i)
  Relative secreted HBsAg (Folds), AVERAGE: 0.996 Folds
[4]; HBV 1.2x adr, Sample1-2
  Relative secreted HBsAg (Folds), individual samples: 1.007 Folds and 0.9855 Folds
[5]; R1, single samples
  Relative HBV transcript R1, Sample1-3: 0.9971 and 1.095 and 1.085
[5]; R2
  Relative HBV transcript R2, AVERAGE: 1.083
[5]; R3
  Relative HBV transcript R3, AVERAGE: 0.953
[5]; R3, single samples
  Relative HBV transcript R3, Sample1-3: 0.9903 and 0.9758 and 0.8935
In vitro [6]; AVERAGE
  viability at 10 µM: 99.6%
In vitro [6]; individual samples, Sample1-3
  viability at 10 µM: 99.3%
In vitro [7]; AVERAGE
  viability at 10 µM: 101%
In vitro [7]; individual samples, Sample1-3
  viability at 10 µM: 101%
[8]
  Cell viability(%), individual samples: 100.151% and 99.4005%
[9]; pgRNA promoter, Control = 1
  Relative pgRNA promoter activity, AVERAGE: 1.039
[9]; pgRNA promoter, single samples
  Relative pgRNA promoter activity, Sample1-3: 0.9019 and 1.084 and 1.13
[9]; sRNA promoter, Control = 1
  Relative sRNA promoter activity, AVERAGE: 1.037
[9]; sRNA promoter, single samples
  Relative sRNA promoter activity, Sample1-3: 0.9017 and 1.283 and 0.9275
[10]; HBV 1.2x adr (figure 4h)
  Relative intracellular HBV DNA level (Folds), AVERAGE: 0.1393 Folds
[10]; HBV 1.2x adr, Sample1-3
  Relative intracellular HBV DNA level (Folds), individual samples: 0.1084 Folds and 0.1053 Folds and 0.1147 Folds
[11]; HBV 1.2x adr (figure 4g)
  Relative secreted HBV DNA level (Folds), AVERAGE: 0.03628 Folds
[11]; HBV 1.2x adr
  Relative secreted HBV DNA level (Folds), individual samples: 0.356 Folds and 6.706e-5 Folds and 0.0005754 Folds
